Experiments:
[1] = target: T1, recombinant human 5-HT5A receptor (Homo sapiens, UniProt P47898); assay: [3H]LSD radioligand binding assay; settings: [3H]LSD approx. 1 nM; membranes from HEK-EBNA cells transiently expressing 5-HT5A; Ki by Cheng-Prussoff equation
T1 construct: expressed in transfected cells; host or cells: HEK-EBNA (Human Embryonic Kidney-EBNA) cells, transient cDNA expression; membranes
Method: A [^3H]LSD radioligand binding assay was used to determine the affinity of the compounds for the recombinant human 5-HT5A receptor, in membranes from transiently (cDNA) expressed 5-HT5A receptors in Human Embryonic Kidney-EBNA (HEK-EBNA) cells. Assay buffer consisted of Tris (50 mM) buffer containing 1 mM EGTA, 10 mM MgCl2 (pH 7.4) and 10 μM pargyline. The binding assay was carried out in 96-well-plates in the presence of [^3H]LSD (approximately 1 nM), approximately 2 μg/well of membrane protein, and 0.5 mg of Ysi-poly-1-lysine SPA beads in a final volume of 200 μl of buffer. Non-specific binding was defined using methiothepin 2 μM. Compounds were tested at 10 concentrations. All assays were conducted in duplicate and repeated at least two times. Assay plates were incubated for 120 min at room temperature before centrifugation. Bound ligand was determined using a Packard Topcount scintillation counter. IC50 values were calculated using a non-linear curve fitting program and Ki values calculated using the Cheng-Prussoff equation.

T1 sequence (P47898 whole entry): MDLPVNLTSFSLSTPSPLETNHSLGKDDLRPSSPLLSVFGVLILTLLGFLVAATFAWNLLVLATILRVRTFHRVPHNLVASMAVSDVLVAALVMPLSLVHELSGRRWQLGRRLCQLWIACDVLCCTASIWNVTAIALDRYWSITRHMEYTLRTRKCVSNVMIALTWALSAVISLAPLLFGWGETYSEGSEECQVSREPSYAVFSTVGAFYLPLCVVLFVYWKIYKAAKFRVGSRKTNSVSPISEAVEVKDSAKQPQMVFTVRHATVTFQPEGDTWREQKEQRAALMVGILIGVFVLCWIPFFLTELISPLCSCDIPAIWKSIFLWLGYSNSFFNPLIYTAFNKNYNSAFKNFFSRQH

SMILES | Ki [1] | melting point
COc1ccccc1CNc1ccc2c(N)cccc2n1 [Example 1, N^2-(2-Methoxy-benzyl)-quinoline-2,5-diamine] | 27.3 nM | –
Cc1ccc(CNc2ccc3c(N)cccc3n2)o1 [Example 2, N^2-(5-Methyl-furan-2-ylmethyl)-quinoline-2,5-diamine] | 83.8 nM | –
Cc1ccc(CNc2ccc3c(NC4CCOCC4)cccc3n2)o1 [Example 7, N^2-(5-Methyl-furan-2-ylmethyl)-N^5-(tetrahydro-pyran-4-yl)-quinoline-2,5-diamine] | 92 nM | –
CSCCNc1cccc2nc(NCc3ccc(C)o3)ccc12 [Example 9, N^2-(5-Methyl-furan-2-ylmethyl)-N^5-(2-methylsulfanyl-ethyl)-quinoline-2,5-diamine] | 81.2 nM | –
Cc1ccc(CNc2ccc3c(NCC[S+](C)[O-])cccc3n2)o1 (stereo not shown) [Example 10, N^5-(2-Methanesulfinyl-ethyl)-N^2-(5-methyl-furan-2-ylmethyl)-quinoline-2,5-diamine] | 99.3 nM | –
Nc1cccc2nc(NCc3ccccc3OC(F)(F)F)ccc12 [Example 13, N^2-(2-Trifluoromethoxy-benzyl)-quinoline-2,5-diamine] | 93.9 nM | –
Cc1cc2cccc(Nc3ccc4c(N)cccc4n3)c2o1 [Example 14, N^2-(2-Methyl-benzofuran-7-yl)-quinoline-2,5-diamine] | 112 nM | –
CC1Cc2cccc(Nc3ccc4c(N)cccc4n3)c2O1 (stereo not shown) [Example 15, N^2-(2-Methyl-2,3-dihydro-benzofuran-7-yl)-quinoline-2,5-diamine] | 49.4 nM | –
CC1(C)Cc2cccc(Nc3ccc4c(N)cccc4n3)c2O1 [Example 16, N^2-(2,2-Dimethyl-2,3-dihydro-benzofuran-7-yl)-quinoline-2,5-diamine] | 44.4 nM | –
Nc1cccc2nc(Nc3cccc(C4CC4)c3)ccc12 [Example 18, N^2-(3-Cyclopropyl-phenyl)-quinoline-2,5-diamine] | 71.2 nM | –
Cc1ccc(CNc2ccc3c(NS(=O)(=O)N(C)C)cccc3n2)o1 [Example 20, N,N-dimethyl-N′-(2-{[(5-methyl-2-furyl)methyl]amino}quinolin-5-yl)sulfamide] | 60.4 nM | –
CC1Cc2cccc(Nc3ccc4c(NS(=O)(=O)N(C)C)cccc4n3)c2O1 (stereo not shown) [Example 21, N,N-dimethyl-N′-{2-[(2-methyl-2,3-dihydro-1-benzofuran-7-yl)amino]quinolin-5-yl}sulfamide] | 101 nM | –
Cc1ccc(CNc2ccc3c(CCCCO)cccc3n2)o1 [Example 26, 4-{2-[(5-Methyl-furan-2-ylmethyl)-amino]-quinolin-5-yl}-butan-1-ol] | 61.8 nM | –
COc1ccccc1CNc1ccc2c(OCCSC)cccc2n1 [Example 30, (2-Methoxy-benzyl)-[5-(2-methylsulfanyl-ethoxy)-quinolin-2-yl]-amine] | 219 nM | –
COc1ccccc1CNc1ccc2c(C(=N)NO)cccc2n1 [Example 32, N-Hydroxy-2-(2-methoxy-benzylamino)-quinoline-5-carboxamidine] | 44.7 nM | 161 °C
